ChEMBL document CHEMBL4715870, “Synthesis and Structure-Activity Relationship of Tetra-Substituted Cyclohexyl Diol Inhibitors of Proviral Insertion of Moloney Virus (PIM) Kinases” (J Med Chem, 2020)

What was measured:
[1] = in vitro; conditions: human, Caco-2
[2] = physchem; conditions: buffer, pH 7.4

Papp A→B [1]	logD [2]	Structure (SMILES)
8.5 ×10⁻⁶ cm/s	1.9	C[C@@H]1C[C@H](N)C[C@H](c2ccncc2NC(=O)c2ccc(F)c(-c3c(F)cccc3F)n2)C1 [LGH-447]
28.8 ×10⁻⁶ cm/s	3	C[C@H]1C[C@@H](c2ccncc2NC(=O)c2ccc(F)c(-c3c(F)cccc3F)n2)C[C@@H](O)[C@@H]1O
